Where a name gives a salt, the structure may show the parent alone.
Columns and labels:
[1] = system: human Jurkat T cells deficient in FADD; test: Cell protection effect under apoptosis-inducing condition (TNF-α); assay type: cell-based; settings: 40 ng of TNF-α, 50 hours, CellTiter-Glo, read-out: I2.I Cell EC50
Protocol: The cell protection effect of the compounds according to the present invention under the condition of inducing apoptosis by TNF-α was confirmed by […]. An apoptosis inducing factor such as TNF-α was treated to induce apoptosis of human Jurkat T cells deficient in FADD, to which the example compound was treated, and the cell protection effect was confirmed through the following analysis. Jurkat T cells deficient in FADD were cultured using RPMI medium (Hyclone) containing 10% FBS. When performing the test, the cells were seeded in a 96-well plate containing a medium suitable for the cell line at the density of 10,000 cells/well, and cultured in a 37° C. 5% CO2 incubator for 24 hours. Then, each well was treated with 40 ng of TNF-α, and the compounds prepared in the above examples were each treated with a 3-fold concentration gradient with 1 μM as the highest concentration. As the solvent control, dimethyl sulfoxide (DMSO) was treated at the concentration of 0.05% (v/v), which was the same concentration as that used for the compound treatment. Then, the cells were cultured for 50 hours. To confirm the degree of viability of the cells, a mixture provided in CellTiter-Gloe Luminescent Cell Viability Assay Kit (Promega) was added to the culture medium of the cells, followed by further culture at 37° C. for 30 minutes. Then, luminescence fluorescence was measured. The degree of inhibition of apoptosis induction according to the treatment concentration of each compound was calculated based on the fluorescence of the solvent control cells not treated with the compound. At this time, the concentration of each compound inhibiting 50% was determined as EC50 (μM). EC50 of each compound was calculated using Prism (version 7.01, GraphPad) software.

[2] = target: T1, human GST-RIPK1 (Homo sapiens, UniProt Q13546); test: RIPK1 inhibitory activity (ADP-Glo kinase assay); assay type: biochemical; settings: human GST-RIPK1 10 ng, ATP 50 uM, 25° C. for 4 hours, read-out: Enzyme IC50
T1 construct: GST; purchased signalchem
T1 sequence (Q13546 1-375 limits assumed): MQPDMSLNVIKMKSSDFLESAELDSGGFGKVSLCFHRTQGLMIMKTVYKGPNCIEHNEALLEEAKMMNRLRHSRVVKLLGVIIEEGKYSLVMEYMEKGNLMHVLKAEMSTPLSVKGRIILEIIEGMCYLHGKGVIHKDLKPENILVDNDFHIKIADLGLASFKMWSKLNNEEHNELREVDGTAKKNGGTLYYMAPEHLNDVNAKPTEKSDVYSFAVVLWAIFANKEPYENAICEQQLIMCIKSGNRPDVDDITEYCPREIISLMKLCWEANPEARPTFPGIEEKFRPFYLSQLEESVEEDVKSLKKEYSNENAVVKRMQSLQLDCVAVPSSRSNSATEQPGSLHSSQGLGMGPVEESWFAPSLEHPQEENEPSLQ
Protocol: The following experiment was performed to evaluate the inhibitory activity of the example compounds according to the present invention against RIPK1 (receptor-interacting serine/threonine protein kinase 1).
The example compound was reacted with the purified human GST-RIPK1 (1375, signalchem) enzyme to evaluate the enzyme inhibitory activity in the following manner. The composition of the reaction buffer used herein was as follows: 40 mM Tris-Hcl pH 7.4, 20 mM MgCl2, 0.5 mg/ml, BSA and 0.5 uM DTT. All the test materials were reacted in the reaction buffer. After reacting human GST-RIPK1 (1375, 10 ng), purified ATP (50 uM) and a specific substrate solution at 25° C. for 4 hours, the enzyme activity was confirmed using an in vitro ADP-Glo™ kinase assay (promega). Luminoscence was measured by reacting the enzyme activity reaction solution, ADP-Glo reaction solution, and enzyme activity detection solution at the ratio of 2:2:1. The degree of enzyme activity inhibition according to the treatment concentration of each compound was calculated based on the fluorescence of the enzyme activity of the solvent control not treated with the compound. At this time, the concentration of each compound inhibiting 50% of the enzyme activity was determined as IC50 (nM). IC50 of each compound was determined with three data sets and calculated using Prism (version 7.01, GraphPad) software.

EC50 [1]	IC50 [2]	Structure (SMILES)
0.17 nM	–	Cc1ccc(NC(=O)N2N=CCC2c2ccccc2)cc1C#Cc1cnc2cccnn12 (stereo not drawn) [Example 1, N-(3-(imidazo[1,2-b]pyridazin-3-ylethynyl)-4-methylphenyl)-5-phenyl-4,5-dihydro-1H-pyrazole-1-carboxamide 2,2,2-trifluoroacetate]
0.06 nM	5.1 nM	Cc1ccc(NC(=O)N2N=CC[C@H]2c2ccccc2)cc1C#Cc1cnc2cccnn12 [Example 2, (S)—N-(3-(imidazo[1,2-b]pyridazin-3-ylethynyl)-4-methylphenyl)-5-phenyl-4,5-dihydro-1H-pyrazole-1-carboxamide 2,2,2-trifluoroacetate]
314 nM	221 nM	Cc1ccc(NC(=O)N2N=CC[C@@H]2c2ccccc2)cc1C#Cc1cnc2cccnn12 [Example 3, (R)—N-(3-(imidazo[1,2-b]pyridazin-3-ylethynyl)-4-methylphenyl)-5-phenyl-4,5-dihydro-1H-pyrazole-1-carboxamide 2,2,2-trifluoroacetate]
1.7 nM	7.68 nM	Cc1ccc(NC(=O)N2N=CCC2c2cc(F)cc(F)c2)cc1C#Cc1cnc2cccnn12 (stereo not drawn) [Example 4, 5-(3,5-difluorophenyl)-N-(3-(imidazo[1,2-b]pyridazin-3-ylethynyl)-4-methylphenyl)-4,5-dihydro-1H-pyrazole-1-carboxamide 2,2,2-trifluoroacetate]
0.4 nM	4.56 nM	Cc1ccc(NC(=O)N2N=CC[C@H]2c2cc(F)cc(F)c2)cc1C#Cc1cnc2cccnn12 [Example 5, (S)-5-(3,5-difluorophenyl)-N-(3-(imidazo[1,2-b]pyridazin-3-ylethynyl)-4-methylphenyl)-4,5-dihydro-1H-pyrazole-1-carboxamide 2,2,2-trifluoroacetate]
249 nM	> 1000 nM	Cc1ccc(NC(=O)N2N=CC[C@@H]2c2cc(F)cc(F)c2)cc1C#Cc1cnc2cccnn12 [Example 6, (R)-5-(3,5-difluorophenyl)-N-(3-(imidazo[1,2-b]pyridazin-3-ylethynyl)-4-methylphenyl)-4,5-dihydro-1H-pyrazole-1-carboxamide 2,2,2-trifluoroacetate]
1.9 nM	134 nM	Cc1ccc(NC(=O)N2N=CCC2c2ccc(C(F)(F)F)cc2)cc1C#Cc1cnc2cccnn12 (stereo not drawn) [Example 7, N-(3-(imidazo[1,2-b]pyridazin-3-ylethynyl)-4-methylphenyl)-5-(4-(trifluoromethyl)phenyl)-4,5-dihydro-1H-pyrazole-1-carboxamide 2,2,2-trifluoroacetate]
0.59 nM	83.6 nM	Cc1ccc(NC(=O)N2N=CCC2c2cccc(F)c2)cc1C#Cc1cnc2cccnn12 (stereo not drawn) [Example 8, 5-(3-fluorophenyl)-N-(3-(imidazo[1,2-b]pyridazin-3-ylethynyl)-4-methylphenyl)-4,5-dihydro-1H-pyrazole-1-carboxamide 2,2,2-trifluoroacetate]
0.41 nM	19.5 nM	Cc1ccc(NC(=O)N2N=CC[C@H]2c2cccc(F)c2)cc1C#Cc1cnc2cccnn12 [Example 9, (S)-5-(3-fluorophenyl)-N-(3-(imidazo[1,2-b]pyridazin-3-ylethynyl)-4-methylphenyl)-4,5-dihydro-1H-pyrazole-1-carboxamide 2,2,2-trifluoroacetate]
326 nM	801 nM	Cc1ccc(NC(=O)N2N=CC[C@@H]2c2cccc(F)c2)cc1C#Cc1cnc2cccnn12 [Example 10, (R)-5-(3-fluorophenyl)-N-(3-(imidazo[1,2-b]pyridazin-3-ylethynyl)-4-methylphenyl)-4,5-dihydro-1H-pyrazole-1-carboxamide 2,2,2-trifluoroacetate]
0.35 nM	47.4 nM	Cc1ccc(NC(=O)N2N=CCC2c2ccc(F)cc2)cc1C#Cc1cnc2cccnn12 (stereo not drawn) [Example 11, 5-(4-fluorophenyl)-N-(3-(imidazo[1,2-b]pyridazin-3-ylethynyl)-4-methylphenyl)-4,5-dihydro-1H-pyrazole-1-carboxamide 2,2,2-trifluoroacetate]
0.2 nM	19.1 nM	Cc1ccc(NC(=O)N2N=CC[C@H]2c2ccc(F)cc2)cc1C#Cc1cnc2cccnn12 [Example 12, (S)-5-(4-fluorophenyl)-N-(3-(imidazo[1,2-b]pyridazin-3-ylethynyl)-4-methylphenyl)-4,5-dihydro-1H-pyrazole-1-carboxamide 2,2,2-trifluoroacetate]
321 nM	503 nM	Cc1ccc(NC(=O)N2N=CC[C@@H]2c2ccc(F)cc2)cc1C#Cc1cnc2cccnn12 [Example 13, (R)-5-(4-fluorophenyl)-N-(3-(imidazo[1,2-b]pyridazin-3-ylethynyl)-4-methylphenyl)-4,5-dihydro-1H-pyrazole-1-carboxamide 2,2,2-trifluoroacetate]
0.2 nM	5.3 nM	Cc1ccc(NC(=O)N2N=CCC2c2cccc(Cl)c2)cc1C#Cc1cnc2cccnn12 (stereo not drawn) [Example 14, 5-(3-chlorophenyl)-N-(3-(imidazo[1,2-b]pyridazin-3-ylethynyl)-4-methylphenyl)-4,5-dihydro-1H-pyrazole-1-carboxamide 2,2,2-trifluoroacetate]
0.1 nM	4.3 nM	Cc1ccc(NC(=O)N2N=CCC2c2ccc(Cl)cc2)cc1C#Cc1cnc2cccnn12 (stereo not drawn) [Example 15, 5-(4-chlorophenyl)-N-(3-(imidazo[1,2-b]pyridazin-3-ylethynyl)-4-methylphenyl)-4,5-dihydro-1H-pyrazole-1-carboxamide 2,2,2-trifluoroacetate]
0.05 nM	1.8 nM	Cc1ccc(NC(=O)N2N=CCC2c2cccnc2)cc1C#Cc1cnc2cccnn12 (stereo not drawn) [Example 16, N-(3-(imidazo[1,2-b]pyridazin-3-ylethynyl)-4-methylphenyl)-5-(pyridin-3-yl)-4,5-dihydro-1H-pyrazole-1-carboxamide 2,2,2-trifluoroacetate]
0.2 nM	1.8 nM	Cc1ccc(NC(=O)N2N=CCC2c2ccccn2)cc1C#Cc1cnc2cccnn12 (stereo not drawn) [Example 17, N-(3-(imidazo[1,2-b]pyridazin-3-ylethynyl)-4-methylphenyl)-5-(pyridin-2-yl)-4,5-dihydro-1H-pyrazole-1-carboxamide 2,2,2-trifluoroacetate]
0.3 nM	2.4 nM	Cc1ccc(NC(=O)N2N=CCC2c2ccncc2)cc1C#Cc1cnc2cccnn12 (stereo not drawn) [Example 18, N-(3-(imidazo[1,2-b]pyridazin-3-ylethynyl)-4-methylphenyl)-5-(pyridin-4-yl)-4,5-dihydro-1H-pyrazole-1-carboxamide 2,2,2-trifluoroacetate]
0.26 nM	3.8 nM	O=C(Nc1cccc(C#Cc2cnc3cccnn23)c1)N1N=CCC1c1ccccc1 (stereo not drawn) [Example 19, N-(3-(imidazo[1,2-b]pyridazin-3-ylethynyl)phenyl)-5-phenyl-4,5-dihydro-1H-pyrazole-1-carboxamide 2,2,2-trifluoroacetate]
0.021 nM	0.52 nM	O=C(Nc1cccc(C#Cc2cnc3cccnn23)c1)N1N=CC[C@H]1c1ccccc1 [Example 20, (S)—N-(3-(imidazo[1,2-b]pyridazin-3-ylethynyl)phenyl)-5-phenyl-4,5-dihydro-1H-pyrazole-1-carboxamide hydrochloride]
